In patent publication US20240383908A1, “SYNTHESIS AND APPLICATION OF PHOSPHATASE DEGRADER” (HINOVA PHARMACEUTICALS INC., priority 2021, published 2024):

Target: T1, SHP2 protein (Homo sapiens, UniProt Q06124)
T1 sequence (Q06124 1-593): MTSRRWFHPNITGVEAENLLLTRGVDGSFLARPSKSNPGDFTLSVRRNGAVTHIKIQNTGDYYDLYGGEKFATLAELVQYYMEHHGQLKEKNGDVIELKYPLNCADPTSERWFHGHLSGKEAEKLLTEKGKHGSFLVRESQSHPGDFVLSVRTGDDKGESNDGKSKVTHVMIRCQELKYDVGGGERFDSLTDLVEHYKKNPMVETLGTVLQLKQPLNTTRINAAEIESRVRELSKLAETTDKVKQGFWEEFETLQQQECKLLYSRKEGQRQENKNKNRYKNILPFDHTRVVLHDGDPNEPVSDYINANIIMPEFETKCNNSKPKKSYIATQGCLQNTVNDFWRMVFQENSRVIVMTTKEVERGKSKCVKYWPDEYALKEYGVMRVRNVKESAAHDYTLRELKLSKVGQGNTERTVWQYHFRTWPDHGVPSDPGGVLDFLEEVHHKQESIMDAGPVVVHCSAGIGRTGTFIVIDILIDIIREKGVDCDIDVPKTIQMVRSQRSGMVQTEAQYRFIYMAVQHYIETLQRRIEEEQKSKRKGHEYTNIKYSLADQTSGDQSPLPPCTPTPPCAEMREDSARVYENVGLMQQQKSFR
Test: Degradation activity on SHP2 protein in MIA Paca-2 cells (Western blot, DC50)
Type: cell-based
Parameters: endogenous in cells; host or cells: MIA Paca-2 cells
Settings: read-out: Degradation activity for differenct cell lines MIA Paca-2 (DC50)
Summary of the method: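 DC50 is the concentration degrading 50% of SHP2 relative to DMSO control. It was derived by fitting Western blot band densitometry (anti-SHP2, GAPDH reference) from cells exposed 24 h to 0.1–100 nM compound in 0.1% DMSO.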

SMILES | DC50
C[C@@H]1OCC2(CCN(c3cnc(Sc4cccc(NC(=O)C5CCC(N6CCN(c7ccc(C(=O)NCc8ccc9c(c8)CN(C8CCC(=O)NC8=O)C9=O)nn7)CC6)CC5)c4)cn3)CC2)[C@@H]1N (some centres unmarked) [Compound 476] | > 1000 nM
CC1(N)CCN(c2cnc(Sc3cccc(NC(=O)[C@H]4C[C@@H]4c4ccc(N5CCN(c6ccc(C(=O)NCc7ccc8c(c7)CN(C7CCC(=O)NC7=O)C8=O)nn6)CC5)c(F)c4)c3)cn2)CC1 (some centres unmarked) [Compound 281] | > 1000 nM
CC1(N)CCN(c2cnc(Sc3cccc(NC(=O)c4ccc(N5CCC(N6CCN(c7ccc(C(=O)NCc8ccc9c(c8)CN(C8CCC(=O)NC8=O)C9=O)nc7)CC6)CC5)cc4F)c3)cn2)CC1 (centres unmarked) [Compound 392] | < 100 nM
CC1(N)CCN(c2cnc(Sc3cccc(NC(=O)C4CC45CCN(C4CCN(c6ccc(C(=O)NCc7ccc8c(c7)CN(C7CCC(=O)NC7=O)C8=O)nn6)CC4)CC5)c3)cn2)CC1 (centres unmarked) [Compound 290] | > 1000 nM
C[C@@H]1OCC2(CCN(c3cnc(Sc4cccc(NC(=O)c5ccc(N6CCC(N7CC=C(c8ccc(C(=O)NCc9ccc%10c(c9)CN(C9CCC(=O)NC9=O)C%10=O)nn8)CC7)C6)cc5)c4)cn3)CC2)[C@@H]1N (some centres unmarked) [Compound 520] | < 100 nM
Cc1cc(N2CCC(N3CC=C(c4ccc(C(=O)NCc5ccc6c(c5)CN(C5CCC(=O)NC5=O)C6=O)cc4)CC3)CC2)ccc1C(=O)Nc1cccc(Sc2cnc(N3CCC(C)(N)CC3)cn2)c1 (centres unmarked) [Compound 454] | 100 to 1000 nM
CC1(N)CCN(c2cnc(Sc3cccc(NC(=O)CCCCN4CCC(N5CCN(c6ccc(C(=O)NCc7ccc8c(c7)CN(C7CCC(=O)NC7=O)C8=O)nn6)CC5C(F)(F)F)C4)c3)cn2)CC1 (centres unmarked) [Compound 267] | < 100 nM
Cc1cc(C(=O)Nc2cccc(Sc3cnc(N4CCC(C)(N)CC4)cn3)c2)ccc1N1CCC(N2CCN(c3cnc(C(=O)NCc4ccc5c(c4)CN(C4CCC(=O)NC4=O)C5=O)cc3Cl)CC2)CC1 (centres unmarked) [Compound 495] | < 100 nM
Cc1cc(C2=CCN(C3CCN(c4ccc(C(=O)Nc5cccc(Sc6cnc(N7CCC8(CC7)CO[C@@H](C)[C@H]8N)cn6)c5)cc4F)CC3)CC2)ncc1C(=O)NCc1ccc2c(c1)CN(C1CCC(=O)NC1=O)C2=O (some centres unmarked) [Compound 488] | < 100 nM
COCC1(N)CCN(c2cnc(Sc3cccc(NC(=O)c4ccc(N5CCC(N6CC=C(c7ccc(C(=O)NCc8ccc9c(c8)CN(C8CCC(=O)NC8=O)C9=O)nc7)CC6)CC5)cc4)c3)cn2)CC1 (centres unmarked) [Compound 434] | < 100 nM
CC1(N)CCN(c2cnc(Sc3cccc(NC(=O)c4ccc(N5CCC(N6CCN(c7cnc(C(=O)NCc8ccc9c(c8)CN(C8CCC(=O)NC8=O)C9=O)cc7Cl)CC6)CC5)c(F)c4)c3)cn2)CC1 (centres unmarked) [Compound 496] | < 100 nM
CC1(N)CCN(c2cnc(Sc3cccc(NC(=O)COc4ccc(N5CCN(c6ccc(C(=O)NCc7ccc8c(c7)CN(C7CCC(=O)NC7=O)C8=O)nn6)CC5)cc4)c3)cn2)CC1 (centres unmarked) [Compound 265] | < 100 nM
CC1(N)CCN(c2cnc(Sc3cccc(NC(=O)c4ccc(N5CCC(N6CC=C(c7ccc(C(=O)NCc8ccc9c(c8)CN(C8CCC(=O)NC8=O)C9=O)nn7)CC6)CC5)c(F)c4)c3)cn2)CC1 (centres unmarked) [Compound 329] | < 100 nM
CC1(N)CCN(c2cnc(Sc3cccc(NC(=O)c4ccc(N5CCC(N6CCN(c7cnc(C(=O)NCc8ccc9c(c8)CN(C8CCC(=O)NC8=O)C9=O)cc7Cl)CC6)CC5)cc4)c3)cn2)CC1 (centres unmarked) [Compound 508] | < 100 nM
Cc1cc(C(=O)Nc2cccc(Sc3cnc(N4CCC(C)(N)CC4)cn3)c2)ccc1N1CCC(N2CC=C(c3cnc(C(=O)NCc4ccc5c(c4)CN(C4CCC(=O)NC4=O)C5=O)c(Cl)c3)CC2)CC1 (centres unmarked) [Compound 440] | > 1000 nM
Cc1cc(C(=O)Nc2cccc(Sc3cnc(N4CCC(C)(N)CC4)cn3)c2)cc(C)c1N1CCC(N2CC=C(c3ccc(C(=O)NCc4ccc5c(c4)CN(C4CCC(=O)NC4=O)C5=O)nc3)CC2)CC1 (centres unmarked) [Compound 486] | < 100 nM
CC1(N)CCN(c2cnc(Sc3cccc(NCc4ccc(CN5CCN(c6ccc7c(c6)CN(C6CCC(=O)NC6=O)C7=O)CC5)cc4)c3)cn2)CC1 (centres unmarked) [Compound 254] | > 1000 nM
